Experimental data reported in patent publication US10941153B2, “Substituted phenethylamine derivatives” (REGENTS OF THE UNIVERSITY OF MINNESOTA, priority 2018, dated 2021).

Columns and labels:
[1] = biological target: T1, σ1 receptor (UniProt Q99720); experiment: PDSP binding affinity, sigma-1; parameters: species or system human
T1 construct: Ki, Sigma-1; σ1 potency and selectivity, in words; other: relative to compound 4e
From the text: Assay data for compound 53558 against sigma-1 receptor is presented in FIG. 21 and Tables 10 and 11 below: […]

[2] = biological target: 5-HT7 receptor (Homo sapiens, UniProt P34969); experiment: PDSP GPCR binding affinity, 5-HT7; details: for 5-HT7 potency, in words: relative to compound 4i
From the text: (§1) In particular, the Ki (nM) value is provided. […] FIGS. 14-15 are graphical views of Log P vs. Ki, 5-HT2B receptor and Log P vs. Ki, sigma-1 receptor, respectively, summarizing the data presented in Table 6, according to one or more embodiments of the present disclosure. Assay data for compound 53545 against 5-HT7A receptor is presented in FIG. 18 and Tables 8-9 provided below: […]

[3] = biological target: 5-HT2B receptor (Homo sapiens, UniProt P41595); experiment: PDSP GPCR binding affinity, 5-HT2B
From the text: In particular, the Ki (nM) value is provided. […] FIGS. 14-15 are graphical views of Log P vs. Ki, 5-HT2B receptor and Log P vs. Ki, sigma-1 receptor, respectively, summarizing the data presented in Table 6, according to one or more embodiments of the present disclosure. Assay data for compound 53545 against 5-HT7A receptor is presented in FIG. 18 and Tables 8-9 provided below:
Assay data for compound 53529 against 5-HT2B receptor is presented in FIG. 22 and Tables 12-13 provided below: […]

[4] = test system: human GPCR (serotonin, adrenergic, dopamine, histamine, muscarinic, opioid, sigma and others); experiment: PDSP broad GPCR screen; details: wider array of GCPR, Table 5
Experimental: The G-Protein-coupled receptor (GPCR) binding affinity of the compounds of the present disclosure was assessed through the Psychoactive Drug Screening Program.
An initial screen of three primary amines was submitted. […] The molecules were screened across a wide range of human GPCR including serotonin (5-HT), α- and β-adrenergic (Alpha and Beta), dopamine (D), histamine (H), muscarinic (M), opioid (OR), sigma (σ), and others (Table 1).

[5] = biological target: T2, 5-HT1A receptor (Homo sapiens, UniProt P08908); experiment: PDSP GPCR binding affinity, 5-HT1A
T2 sequence (P08908 1-422): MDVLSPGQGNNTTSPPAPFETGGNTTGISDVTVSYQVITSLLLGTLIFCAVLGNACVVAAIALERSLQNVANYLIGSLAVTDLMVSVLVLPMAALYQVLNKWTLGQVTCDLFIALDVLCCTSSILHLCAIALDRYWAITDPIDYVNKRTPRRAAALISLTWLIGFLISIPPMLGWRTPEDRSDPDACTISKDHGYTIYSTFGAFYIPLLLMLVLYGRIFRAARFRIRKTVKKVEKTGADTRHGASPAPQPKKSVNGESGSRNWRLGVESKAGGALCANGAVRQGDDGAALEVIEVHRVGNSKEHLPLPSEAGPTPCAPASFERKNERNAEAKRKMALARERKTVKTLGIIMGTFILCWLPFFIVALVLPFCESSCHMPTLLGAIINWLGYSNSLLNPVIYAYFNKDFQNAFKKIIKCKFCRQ
From the text: as §1

Sequence of 5-HT7 receptor (P34969 1-445 isoform P34969-2): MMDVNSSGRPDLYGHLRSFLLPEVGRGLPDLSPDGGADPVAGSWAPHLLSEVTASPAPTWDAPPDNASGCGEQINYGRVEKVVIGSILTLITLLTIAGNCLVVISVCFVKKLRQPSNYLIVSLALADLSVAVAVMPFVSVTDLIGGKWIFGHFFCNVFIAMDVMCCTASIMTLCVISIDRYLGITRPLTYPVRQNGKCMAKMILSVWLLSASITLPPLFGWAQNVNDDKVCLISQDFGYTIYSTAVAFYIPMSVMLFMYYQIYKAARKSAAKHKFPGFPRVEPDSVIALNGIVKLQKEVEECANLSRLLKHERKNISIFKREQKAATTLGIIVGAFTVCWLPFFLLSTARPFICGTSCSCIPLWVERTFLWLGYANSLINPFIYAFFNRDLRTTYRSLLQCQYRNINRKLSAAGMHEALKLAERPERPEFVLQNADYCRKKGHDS
Sequence of 5-HT2B receptor (P41595 whole entry): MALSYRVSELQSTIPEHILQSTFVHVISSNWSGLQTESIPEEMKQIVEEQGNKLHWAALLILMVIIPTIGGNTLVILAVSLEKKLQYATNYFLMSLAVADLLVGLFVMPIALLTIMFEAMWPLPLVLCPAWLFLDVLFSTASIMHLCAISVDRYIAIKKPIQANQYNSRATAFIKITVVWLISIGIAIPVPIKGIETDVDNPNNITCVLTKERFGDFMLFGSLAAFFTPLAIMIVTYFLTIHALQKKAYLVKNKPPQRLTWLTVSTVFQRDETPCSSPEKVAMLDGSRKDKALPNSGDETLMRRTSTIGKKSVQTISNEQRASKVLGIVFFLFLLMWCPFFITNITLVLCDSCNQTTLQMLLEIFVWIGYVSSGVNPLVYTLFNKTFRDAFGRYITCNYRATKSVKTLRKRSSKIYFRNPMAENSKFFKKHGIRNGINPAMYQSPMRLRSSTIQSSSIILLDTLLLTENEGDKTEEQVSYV

Q: With `C[C@@]12COc3cc(O)ccc3[C@@H]1CCN2` [Compound 4d] as the molecule, how does the “σ1 binding, in words” value [1] read?
A: detrimental to activity

Q: For `CN1CC[C@H]2c3ccccc3N(c3ccccc3)C[C@]21C` [Compound 10c], which “5-HT7 potency, in words” value [2] is on record?
A: further enhanced

Q: How did the “5-HT2B binding, in words” value [3] turn out when `Cc1cc(C)c2c(c1)OC[C@@]1(C)NCC[C@@H]21` [Compound 4f] was run?
A: enhanced 5-HT2B binding

Q: With `CC12CN(c3ccccc3)c3ccccc3C1CCN2` (stereo not shown) [Compound 4i] as the molecule, how does the “activity across the additional GCPR investigated” value [4] read?
A: minimal activity

Q: What about the Ki [2] of the same molecule?
A: 6.3 nM

Q: And the “selectivity for 5-HT7 vs next most sensitive receptor, σ1” value [2]?
A: ~75 fold

Q: And the Ki [5]?
A: > 10 µM

Q: With `CC(=O)N1CC[C@H]2c3ccccc3N(c3ccccc3)C[C@]21C` [Compound 11c] as the molecule, how does the “5-HT7 potency, in words” value [2] read?
A: removed activity

Q: For `C[C@@]12COc3cc(OCc4ccccc4)ccc3[C@@H]1CCN2` [Compound 4c], which “σ1 binding, in words” value [1] is on record?
A: potent σ1 ligand

Q: How did the Ki ([3]; 5-HT2B receptor, competition binding curve, SB 206553 as reference, read-out: Ki (Table 12)) turn out when SB 206553 [reference compound] was run?
A: 9.79 nM
